Columns and labels:
[1] = biological target: T1, rat EP1 receptor (Rattus norvegicus, UniProt P70597); test: Test for confirmation of EP1 receptor antagonism: inhibition of prostaglandin E2-induced increase in intracellular calcium concentration (Method A or Method B); type: cell-based; conditions: rat EP1 receptor-expressing cells, prostaglandin E2 10 nM
T1 construct: expressed in transfected cells; host or cells: COS-1 cells, transient transfection with Lipofectamine 2000
T1 sequence (P70597 1-405): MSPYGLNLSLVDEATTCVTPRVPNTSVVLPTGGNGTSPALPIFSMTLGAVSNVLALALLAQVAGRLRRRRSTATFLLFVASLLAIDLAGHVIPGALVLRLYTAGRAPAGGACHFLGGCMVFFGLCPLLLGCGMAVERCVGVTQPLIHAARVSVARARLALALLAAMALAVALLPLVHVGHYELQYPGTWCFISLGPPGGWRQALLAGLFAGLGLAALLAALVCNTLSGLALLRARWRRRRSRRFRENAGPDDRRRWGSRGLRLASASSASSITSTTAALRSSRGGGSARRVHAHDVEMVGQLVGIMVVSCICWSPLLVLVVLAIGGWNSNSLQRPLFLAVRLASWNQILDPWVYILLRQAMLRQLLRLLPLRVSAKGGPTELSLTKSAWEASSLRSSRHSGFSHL
Procedure, shortened: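 Rat EP1 (NM_013100-matching clone) transiently expressed in COS-1 cells via Lipofectamine 2000, 200 ng vector/well, transfected about 2 h after seeding at 5×10^4 cells/well. Cells cultured at 37° C, 5% CO2.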

[2] = test system: sulprostone-induced bladder contraction; test: Inhibitory effect of compound on sulprostone-induced bladder contraction; type: in vivo; conditions: test agent 1.0 mg/kg intravenously, sulprostone 0.3 mg/kg subcutaneously, female SD rats
Protocol: Female SD rats were used. Under urethane anesthesia (1.25 g/kg, administered subcutaneously), a tracheal cannula (Size 8, HIBIKI) and a femoral vein cannula for administration (23G needle-equipped PESO) were inserted thereinto. The bladder cannula (PESO) was inserted from the bladder apex. The bladder cannula was connected to a three-way stopcock, and then, one was connected to a pressure transducer and the other was connected to a syringe filled with saline. Saline was injected to the bladder at an injection rate of 3.6 mL/hour and the bladder contraction pressure was recorded at the time of injection with a recorder (RECTI-HORITZ-8K, NEC Corporation). After 10 minutes from stabilization of the bladder contraction pressure during urination, sulprostone was administered subcutaneously (0.3 mg/kg). Then, at the time point when the bladder contraction pressure became constant, a test agent was administered intravenously (1.0 mg/kg). An average bladder contraction pressure during the 10 minutes period before administration of sulprostone was taken as a baseline (0%). Further, an average bladder contraction pressure during the 10 minutes period before administration of the test agent was taken as a maximum bladder contraction pressure (100%). […] The ratio of this measured value to the maximum bladder contraction pressure was calculated by the following equation and taken as an average bladder contraction rate after administration of the test agent: (Average Bladder Contraction Rate after Administration of Test Agent (%))=(Average Bladder Contraction Pressure after Administration of Test Agent)/(Maximum Bladder Contraction Pressure). In addition, the difference between the maximum bladder contraction rate (100%) and the average bladder contraction rate (%) after administration of the test agent was calculated by the following equation and taken as a bladder contraction inhibition rate of the test agent: (Bladder Contraction Inhibition Rate)=100%−(Average Bladder Contraction Rate after Administration of Test Agent (%)).

[3] = Method A (Fluo-4 NW, FlexStation)
[4] = Method B (Calcium kit II Fluo 4, FDSS 7000)

Row | Compound | IC50 [1, 3] [nM] | IC50 [1, 4] [nM] | Bladder Contraction Inhibition Rate (%) 15 Minutes [2] [%] | Bladder Contraction Inhibition Rate (%) [2] [%]
1 | COc1ccc2c(Cc3cccc(C(=O)O)n3)c(-c3ccccc3)[nH]c2c1 [Example 4-1, 6-(6-methoxy-2-phenyl-1H-indol-3-ylmethyl)pyridine-2-carboxylic acid] | 10 |  | 90.1 | 94.2
2 | COc1ccc2c(Cc3cccc(C(=O)O)c3)c(-c3ccccc3)[nH]c2c1 [Example 4-2, 3-(6-methoxy-2-phenyl-1H-indol-3-ylmethyl)benzoic acid] | 32 |  | 78.3 | 80.4
3 | COc1ccc2c(Cc3cccc(C(=O)O)n3)c(-c3ccsc3)[nH]c2c1 [Example 11-1, 6-(6-methoxy-2-thiophen-3-yl-1H-indol-3-ylmethyl)pyridine-2-carboxylic acid] | 11 |  | 86.1 | 76.8
4 | COc1ccc2c(Cc3cccc(C(=O)O)n3)c(-c3cccc(F)c3)[nH]c2c1 [Example 11-5, 6-[2-(3-fluorophenyl)-6-methoxy-1H-indol-3-ylmethyl]pyridine-2-carboxylic acid] |  | 14 | 79.7 | 81.9
5 | COc1ccc2c(Cc3cccc(C(=O)O)n3)c(-c3csc(C)c3)[nH]c2c1 [Example 11-20, 6-[6-methoxy-2-(5-methylthiophen-3-yl)-1H-indol-3-ylmethyl]pyridine-2-carboxylic acid] | 26 |  | 81.4 | 82.9

Further lines, with some results ahead:

Row | IC50 [1, 3] [nM] | IC50 [1, 4] [nM] | Compound | Bladder Contraction Inhibition Rate (%) 15 Minutes [2] [%] | Bladder Contraction Inhibition Rate (%) [2] [%]
6 |  | 49 | Cc1cc2c(Cc3cccc(C(=O)O)n3)c(-c3ccsc3)[nH]c2cc1C1CC1 [Example 16-102, 6-(6-cyclopropyl-5-methyl-2-thiophen-3-yl-1H-indol-3-ylmethyl)pyridine-2-carboxylic acid] |  | 
7 |  | 26 | COc1cc2c(Cc3cccc(C(=O)O)n3)c(-c3ccoc3)[nH]c2cc1Cl [Example 16-105, 6-(6-chloro-2-furan-3-yl-5-methoxy-1H-indol-3-ylmethyl)pyridine-2-carboxylic acid] |  | 
8 |  | 40 | CCC(C)c1[nH]c2cc(OC)c(Cl)cc2c1Cc1cccc(C(=O)O)n1 (stereo not drawn) [Example 16-107, 6-(2-sec-butyl-5-chloro-6-methoxy-1H-indol-3-ylmethyl)pyridine-2-carboxylic acid] |  | 
9 |  | 19 | COc1cc2c(Cc3cccc(C(=O)O)n3)c(-c3ccsc3)[nH]c2cc1C [Example 16-108, 6-(5-methoxy-6-methyl-2-thiophen-3-yl-1H-indol-3-ylmethyl)pyridine-2-carboxylic acid] |  | 
10 |  | 35 | COc1cc2[nH]c(C(C)C)c(Cc3cccc(C(=O)O)n3)c2cc1Cl [Example 16-109, 6-(5-chloro-2-isopropyl-6-methoxy-1H-indol-3-ylmethyl)pyridine-2-carboxylic acid] |  | 
11 |  | 39 | COc1cc2[nH]c(C(C)C)c(Cc3cccc(C(=O)O)n3)c2cc1F [Example 18-1, 6-(5-fluoro-2-isopropyl-6-methoxy-1H-indol-3-ylmethyl)pyridine-2-carboxylic acid] |  | 

Source: patent publication US20120122931A1, “INDOLE DERIVATIVE OR PHARMACEUTICALLY ACCEPTABLE SALT THEREOF” (KISSEI PHARMACEUTICAL CO., LTD., priority 2009, published 2012)
